The nature of the data set: Citral solution / stable suspension limit. It counts as physicochemical. From the text: The choice of terpene may vary and mixtures of terpenes in an appropriate amount may be used. Thus, in one embodiment the terpene component includes one or more terpenes which contain oxygen. Citral, for example citral 95, is an oxygenated C10H16 terpene, C10H16O CAS No. 5392-40-5 (3,7-dimethyl-2,6-octadien-1-al). A stable suspension of citral can be formed up to about 2500 ppm. Citral can be made into a solution at up to about 500 ppm. A stable suspension of hollow glucan particles incorporating citral of 25 ppt citral can be made.

This note sets out measurements from patent US10383329B2, “Preservatives” (Eden Research PLC, priority 2012, dated 2019).

Turning to `CC(C)=CCCC(C)=CC=O` [Citral, 3,7-dimethyl-2,6-octadien-1-al], the “Concentration up to which citral can be made into a solution” value (solution) was “up to 500 ppm”. The “Concentration up to which a stable suspension of citral can be formed” value (stable suspension) is reported as “up to 2500 ppm”.
